Laboratory results from patent US8883782B2, “Spiro-tetracyclic ring compounds as beta-secretase modulators and methods of use” (Amgen Inc., priority 2010, dated 2014).
Like-named read-outs stand apart in the source and are kept apart here.

Columns and labels:
[1] = target: Beta Secretase enzyme (BACE) (Homo sapiens, UniProt P56817); assay: In vitro enzymatic BACE FRET (fluorescence resonance energy transfer) assay; format: biochemical; conditions: average IC50, enzyme assay; read-out: BACE 1 FRET assay
Beta Secretase enzyme (BACE), sequence (P56817 46-501, species assumed): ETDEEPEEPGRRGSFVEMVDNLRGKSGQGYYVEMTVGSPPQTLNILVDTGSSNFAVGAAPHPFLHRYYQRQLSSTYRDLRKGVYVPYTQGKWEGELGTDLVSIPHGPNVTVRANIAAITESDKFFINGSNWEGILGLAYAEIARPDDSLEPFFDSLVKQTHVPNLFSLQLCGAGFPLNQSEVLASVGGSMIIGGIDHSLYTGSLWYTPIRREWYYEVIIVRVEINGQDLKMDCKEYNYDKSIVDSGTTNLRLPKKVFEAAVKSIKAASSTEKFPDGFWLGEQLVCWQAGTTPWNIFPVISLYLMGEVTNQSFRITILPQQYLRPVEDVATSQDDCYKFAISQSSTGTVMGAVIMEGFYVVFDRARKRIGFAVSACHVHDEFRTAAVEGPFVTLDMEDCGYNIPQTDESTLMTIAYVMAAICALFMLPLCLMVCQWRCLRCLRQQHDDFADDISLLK
Procedure, shortened: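 Enzyme activity was measured at pH 4.2 (0.05 M acetate, 10% DMSO final, 100 uM genapol) by cleavage of a 50 nM quenched fluorogenic peptide. After one hour, Tris was added to neutralise the pH and fluorescence was recorded.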

[2] = test system: Aβ40 in conditioned medium of cells stably expressing Amyloid Precursor Protein (APP); assay: In vitro BACE cell-based assay (Aβ40 in conditioned medium, sandwich ELISA); conditions: Homo sapiens, read-out: HEK cell assay
Procedure, shortened: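 The sandwich ELISA pairs pAb40 capture (3 h, 4 °C) with 6E10 detection (2 h, 4 °C) and a streptavidin-europium TRF read-out. Supernatants come from APP-expressing cells grown in 10% FBS DMEM.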

[3] = HEK293, average IC50, HEK cells

CC(C)(C)C#Cc1cc2c(nc1F)Oc1ccc(-c3cccnc3F)cc1[C@]21COC(N)=N1 [Example 674, (5R)-3-(3,3-dimethyl-1-butyn-1-yl)-2-fluoro-7-(2-fluoro-3-pyridinyl)spiro[chromeno[2,3-b]pyridine-5,4′-[1,3]oxazol]-2′-amine]
IC50 [1]: 239 nM | IC50 [2, 3]: 2810 nM

COc1ccc(-c2cc3c(cn2)Oc2ccc(-c4cccnc4F)cc2[C@@]32COC(N)=N2)cc1 [Example 568, (5S)-7-(2-fluoro-3-pyridinyl)-3-(4-methoxyphenyl)spiro[chromeno[2,3-c]pyridine-5,4′-[1,3]oxazol]-2′-amine]
IC50 [1]: 2.3 nM | IC50 [2, 3]: 29.5 nM

NC1=N[C@@]2(CO1)c1cc(-c3cccc(Cl)c3)ccc1Oc1ncc(-c3cnccn3)cc12 [Example 166, (5S)-7-(3-chlorophenyl)-3-(2-pyrazinyl)spiro[chromeno[2,3-b]pyridine-5,4′-[1,3]oxazol]-2′-amine]
IC50 [1]: 1.8 nM | IC50 ([2]; HEK293, average IC50): 17.7 nM

NC1=N[C@]2(CO1)c1cc(C3=CCOCC3)cc(F)c1Oc1ccc(-c3cccnc3)c(F)c12 [Example 1046, (4R)-7′-(3,6-dihydro-2H-pyran-4-yl)-1′,5′-difluoro-2′-(3-pyridinyl)spiro[1,3-oxazole-4,9′-xanthen]-2-amine]
IC50 [1]: 21.2 nM | IC50 ([2]; HEK293, average IC50): 209 nM

CC(C)(C)COc1ccc2c(c1)[C@@]1(COC(N)=N1)c1cc(C3=CC(C)(C)OCC3)cnc1O2 [Example 506, (5S)-3-(6,6-dimethyl-3,6-dihydro-2H-pyran-4-yl)-7-(2,2-dimethylpropoxy)spiro[chromeno[2,3-b]pyridine-5,4′-[1,3]oxazol]-2′-amine]
IC50 [1]: 5.7 nM | IC50 [2, 3]: 36.1 nM

NC1=N[C@@]2(CO1)c1cc(-c3cncc(F)c3)ccc1Oc1c(F)cc(N3C[C@@H]4C[C@H]3CO4)cc12 [Example 276, (4S)-4′-fluoro-7′-(5-fluoro-3-pyridinyl)-2′-((1S,4S)-2-oxa-5-azabicyclo[2.2.1]hept-5-yl)spiro[1,3-oxazole-4,9′-xanthen]-2-amine]
IC50 [1]: 0.8 nM | IC50 ([2]; HEK293, average IC50): 3.3 nM

NC1=N[C@@]2(CO1)c1cc(-c3cccnc3F)ccc1Oc1c(F)cc(C3=C(Cl)COCC3)cc12 [Example 805, (4S)-2′-(5-chloro-3,6-dihydro-2H-pyran-4-yl)-4′-fluoro-7′-(2-fluoro-3-pyridinyl)spiro[1,3-oxazole-4,9′-xanthen]-2-amine]
IC50 [1]: 0.2 nM | IC50 ([2]; HEK293, average IC50): 3 nM

Cn1cc(-c2cc3c(cc2F)Oc2ccc(-c4cccnc4F)cc2[C@@]32COC(N)=N2)cn1 [Example 311, (4S)-3′-fluoro-7′-(2-fluoro-3-pyridinyl)-2′-(1-methyl-1H-pyrazol-4-yl)spiro[1,3-oxazole-4,9′-xanthen]-2-amine]
IC50 [1]: 3.9 nM | IC50 ([2]; HEK293, average IC50): 19.5 nM

NC1=N[C@@]2(CO1)c1cc(-c3cccnc3F)ccc1Oc1cc(OC(F)(F)F)c(-c3ccnc(F)c3)cc12 [Example 991, (4S)-7′-(2-fluoro-3-pyridinyl)-2′-(2-fluoro-4-pyridinyl)-3′-(trifluoromethoxy)spiro[1,3-oxazole-4,9′-xanthen]-2-amine]
IC50 [1]: 193 nM | IC50 ([2]; HEK293, average IC50): 1090 nM

COC(C)(C)COc1cnc2c(c1)[C@@]1(COC(N)=N1)c1cc(-c3cccc(C(F)(F)F)c3)ccc1O2 [Example 316, (5R)-3-(2-methoxy-2-methylpropoxy)-7-(3-(trifluoromethyl)phenyl)spiro[chromeno[2,3-b]pyridine-5,4′-[1,3]oxazol]-2′-amine]
IC50 [1]: 393 nM | IC50 ([2]; HEK293, average IC50): 2100 nM

COc1ccc(-c2cc3c(cn2)Oc2ccc(-c4cccc(Cl)c4)cc2[C@@]32COC(N)=N2)cc1F [Example 535, (5S)-7-(3-chlorophenyl)-3-(3-fluoro-4-methoxyphenyl)spiro[chromeno[2,3-c]pyridine-5,4′-[1,3]oxazol]-2′-amine]
IC50 [1]: 0.7 nM | IC50 [2, 3]: 106 nM

COc1ncc(-c2cc(F)c3c(c2)[C@]2(COC(N)=N2)c2cc(-c4cccnc4F)ccc2O3)cn1 [Example 213, (4S)-4′-fluoro-7′-(2-fluoro-3-pyridinyl)-2′-(2-methoxy-5-pyrimidinyl)spiro[1,3-oxazole-4,9′-xanthen]-2-amine]
IC50 [1]: 2.7 nM | IC50 ([2]; HEK293, average IC50): 21.6 nM

NC1=N[C@@]2(CS1)c1cc(-c3cncc(F)c3)ccc1Oc1ncc(-c3ncccn3)cc12 [Example 771, (5S)-7-(5-fluoro-3-pyridinyl)-3-(2-pyrimidinyl)spiro[chromeno[2,3-b]pyridine-5,4′-[1,3]thiazol]-2′-amine]
IC50 [1]: 4.6 nM | IC50 ([2]; HEK293, average IC50): 96 nM

NC1=N[C@@]2(CS1)c1cc(-c3cccnc3)ccc1Oc1ncc(C3=CCCOC3)cc12 [Example 959, (5S)-3-(5,6-dihydro-2H-pyran-3-yl)-7-(3-pyridinyl)spiro[chromeno[2,3-b]pyridine-5,4′-[1,3]thiazol]-2′-amine]
IC50 [1]: 1 nM | IC50 [2, 3]: 13 nM

NC1=N[C@@]2(CS1)c1cc(-c3cccnc3F)ccc1Oc1c2cc(Cl)nc1F [Example 1024, (5S)-3-chloro-1-fluoro-7-(2-fluoro-3-pyridinyl)spiro[chromeno[2,3-c]pyridine-5,4′-[1,3]thiazol]-2′-amine]
IC50 [1]: 6.6 nM | IC50 ([2]; HEK293, average IC50): 1440 nM

NC1=N[C@@]2(CS1)c1cc(-c3c(F)ccnc3F)ccc1Oc1cnc(-c3ccnc(F)c3)cc12 [Example 1023, (5S)-7-(2,4-difluoro-3-pyridinyl)-3-(2-fluoro-4-pyridinyl)spiro[chromeno[2,3-c]pyridine-5,4′-[1,3]thiazol]-2′-amine]
IC50 [1]: 0.4 nM | IC50 ([2]; HEK293, average IC50): 18 nM

COc1ccncc1-c1ccc2c(c1)[C@@]1(COC(N)=N1)c1cc(C3=CCOCC3)ncc1O2 [Example 653, (5S)-3-(3,6-dihydro-2H-pyran-4-yl)-7-(4-methoxy-3-pyridinyl)spiro[chromeno[2,3-c]pyridine-5,4′-[1,3]oxazol]-2′-amine]
IC50 [1]: 10.4 nM | IC50 [2, 3]: 9 nM

NC1=N[C@]2(CO1)c1cc(-c3cccnc3F)ccc1Oc1c2cc(C2=CCOCC2)c(F)c1F [Example 1010, (4R)-2′-(3,6-dihydro-2H-pyran-4-yl)-3′,4′-difluoro-7′-(2-fluoro-3-pyridinyl)spiro[1,3-oxazole-4,9′-xanthen]-2-amine]
IC50 [1]: 9.4 nM | IC50 ([2]; HEK293, average IC50): 647 nM

NC1=N[C@]2(CO1)c1cc(C3=CCCOC3)cc(F)c1Oc1ccc(-c3cncnc3)c(F)c12 [Example 1049, (4R)-7′-(5,6-dihydro-2H-pyran-3-yl)-1′,5′-difluoro-2′-(5-pyrimidinyl)spiro[1,3-oxazole-4,9′-xanthen]-2-amine]
IC50 [1]: 15.6 nM | IC50 ([2]; HEK293, average IC50): 85 nM

CC(C)(C)COc1cc(F)c2c(c1)[C@]1(COC(N)=N1)c1cc(-c3cncnc3)c(F)cc1O2 [Example 526, (4S)-7′-(2,2-dimethylpropoxy)-3′,5′-difluoro-2′-(5-pyrimidinyl)spiroy[1,3-oxazole-4,9′-xanthen]-2-amine]
IC50 [1]: 2 nM | IC50 [2, 3]: 9.1 nM

NC1=N[C@]2(CO1)c1cc(C3=CCOCC3)cnc1Oc1ccc(-c3cccnc3F)c(F)c12 [Example 346, (5R)-3-(3,6-dihydro-2H-pyran-4-yl)-6-fluoro-7-(2-fluoro-3-pyridinyl)spiro[chromeno[2,3-b]pyridine-5,4′-[1,3]oxazol]-2′-amine]
IC50 [1]: 0.8 nM | IC50 ([2]; HEK293, average IC50): 6.7 nM
